{"source": "patent US20250011876A1", "about": "“EXTRACELLULAR RNA SIGNATURES OF MUTANT KRAS(G12C) CANCERS” (The Regents of the University of California, priority 2021, published 2025)", "key": {"[1]": {"test_system": "KRAS and phosphorylated ERK in NCI-H358 cells", "details": "cited from earlier work"}, "[2]": {"test_system": "H358 3D spheroids", "test": "H358 spheroid size/area", "format": "cell-based", "details": "0.1 μM AMG 510"}, "[3]": {"test_system": "EVs secreted by H358 cells", "test": "Nanoparticle Tracking Analysis of EV size, ExoTIC isolation", "format": "cell-based", "details": "ExoTIC-isolated EVs, H358, AMG 510 treatment", "text": "To characterize exRNA profiles, EVs were isolated using two orthogonal approaches: affinity column extraction (ExoRNeasy) and size-based filtration (Exosome Total Isolation Chip: ExoTIC). Each EV isolation method captured distinct EV populations as determined by Nanoparticle Tracking Analysis (NTA) (FIGS. 5A and 5B) 18.19. The ExoTIC platform captured a low yield of EVs that fell within a size range matching that of exosomes (FIG. 5A).\nThe exRNA landscape varies based on EV subpopulations isolated by different approaches. We sought to investigate two orthogonal approaches to EV isolation, which yielded distinct EV populations with variable exRNA content. This highlights the importance of upstream EV isolation procedures before the exRNA sequencing pipeline. […] The significant shift in the maxima of the EV size distribution corresponding to AMG 510 treatment was accompanied by local maxima around particles of even smaller dimensions. Further EV size-fractionated exRNA sequencing will be necessary to determine the contribution of the different EV subpopulations to our exRNA data.\nRNA Isolation & Purification. Total bulk RNA was isolated from H358 cells using Quick-RNA Mini-Prep kit (Zymogen). All RNA was quantified via NanoDrop-8000 Spectrophotometer. […] Extracted exosomal RNA were quantified via Qubit RNA HS assay kit (Thermo). […]"}}, "data": [{"smiles": "C=CC(=O)N1CCN(c2ncnc3c(F)c(-c4c(O)cccc4F)c(Cl)cc23)CC1", "note": "[ARS1620]", "values": [{"measurement": "time at which abundance of KRAS and pERK begin to recover", "setting": "[1]", "result": 24, "unit": "hours"}]}, {"smiles": "C=CC(=O)N1CCN(c2nc(=O)n(-c3c(C)ccnc3C(C)C)c3nc(-c4c(O)cccc4F)c(F)cc23)[C@@H](C)C1", "note": "[AMG 510, Sotorasib]", "values": [{"measurement": "decrease of 3D spheroid size with respect to control", "setting": "[2]", "result": 20, "unit": "%"}, {"measurement": "EV size profile after treatment", "setting": "[3]", "result": "around 150 nm"}]}]}
